Source: publication PMC11053681, “Gold(I) and Silver(I) Complexes Containing Hybrid Sulfonamide/Thiourea Ligands as Potential Leishmanicidal Agents” (Pharmaceutics, 2024)
“Also recorded” adds a separate entry of the source. Like-named read-outs stand apart in the source and are kept apart here.

Legend:
Leishmania braziliensis = assay: Leishmanicidal activity against promastigotes (resazurin); type: cell-based; conditions: for IC50: promastigote form, 24 h treatment, resazurin, read-out: IC50 L. braziliensis; for SI L. braziliensis: selectivity index = CC50 (Vero) / IC50 (L. braziliensis promastigotes)
Experimental: (§1) The Leishmania infantum and Leishmania braziliensis strains were maintained in Schneider medium supplemented with 20% of SFB (Schneider 20%), cultivated in […] bottles and stored at 28 °C in a BOD oven. For the assays, parasites at the 5th day stationary growth phase were used.
(§2) The promastigotes metacyclic form of Leishmania infantum and Leishmania braziliensis were first filtered with an insulin syringe to break up rosettes and, then, were isolated from the culture in the stationary phase by centrifugation of 400× g for 4 min at a temperature of 4 °C [53]. The supernatant was subjected to a new centrifugation, heavier, of 2000× g for 30 min, also at 4 °C. The supernatant was discarded and the cell pallet formed from this centrifugation was resuspended in 10 mL of 10% Schneider medium. The process ensured the removal of cellular debris and dead parasites, as well as possible crystals from the culture medium, so that the quality of the experiment was guaranteed. Then, the promastigotes were diluted to 1:10 in paraformaldehyde (PFA) for counting in a Neubauer Chamber, with the concentrations adjusted for each experiment.
(§3) An amount of 1 × 10^7 parasites per well was used. The parasites were plated in 96-well plates. Then, the compounds were added in triplicate, starting at a concentration of 500 µM, with serial dilutions being performed up to a concentration of 3.9 µM [53]. The treatment was carried out for 24 h and, after adding 5 µL of resazurin, the fluorescence was read using a Enspire model spectrofluorometer (Perkin-Elmer, Waltham, MA, USA).

Leishmania infantum = assay: as above; type: cell-based; conditions: for IC50: promastigote form, 24 h treatment, resazurin, read-out: IC50 L. infantum; for SI L. infantum: selectivity index = CC50 (Vero) / IC50 (L. infantum promastigotes)
Experimental: as §1, §2, §3

Vero cells = assay: Cytotoxicity assay on Vero cells (resazurin); type: cell-based, African green monkey; conditions: 24 h treatment
Experimental: (§4) For the experiment, Vero cells (ATCC CRL-1587) were used in Roswell Parl Memorial Institute (RPMI) medium with 10% fetal bovine serum (FBS) (RPMI 10%) and 20 μg/mL of Gentamicin. They were cultivated in culture bottles of […] and kept in an oven at 37 °C with 5% carbon dioxide (CO2). When picked or used on the day of the experiment, the cells were detached from the wall of the bottles with saline and 1X trypsin/EDTA. To find out how many cells there were in the bottle, it was diluted in Turkey liquid and then we proceeded with the counting in the Neubauer Chamber to calculate the desired concentrations. The Vero cells were plated at […] cells per well, in 96-well plates, and kept in an incubator with 5% CO2 at 37 °C for 24 h. Then, the compounds were added in triplicate, starting at a concentration of 500 µM, with serial dilution being performed up to a concentration of 3.9 µM [54]. The treatment was carried out for 24 h, and, after adding 5 µL of resazurin, the fluorescence was read using a spectrofluorometer (EnSpire Perkin-Elmer, Waltham, MA, USA).

[1] = system: RAW macrophages infected with Leishmania infantum; assay: Infectivity test / infection rate in RAW macrophages; type: cell-based; conditions: three concentrations (below IC50, IC50, above IC50), 24 h treatment
Experimental: For the infection of RAW macrophages adhered to the plates, we used parasites in the promastigote form of Leishmania infantum, in the stationary phase, in a ratio of 10:1 (promastigotes/macrophages).
Macrophages were plated in the amount of 5 × 10^4 cells per well, in 96-well plates, which were kept in a CO2 oven at 37 °C for 24 h. The parasites were plated at a concentration of 10:1. The plates were kept in a CO2 oven for 12 h until the parasites infected the cells. […] Plates were fixed with paraformol for further evaluation. Plaques were evaluated by counting parasites within 200 cells under the EVOS Cell Imaging System (Thermo Scientific, Waltham, MA, USA) microscope by staining with propidium iodide.
In view of the data obtained, the six most promising compounds (HL1^Ch, HL2^Ph, Ag3, Ag4, Ag6 and Au2) were selected for carrying out the infection rate test against the L. infantum parasite. […] This test was performed at four stages. The first step determined the percentage of the amount in 200 infected macrophages per parasite, the second determined the percentage of parasites that infects 100 cells/macrophages, the third determined the average percentage of parasites that infects 200 cells/macrophages and, finally, the fourth step indicated the infection rate, that is, the result of the amount of Leishmania per macrophage (obtained from the third step) multiplied by the percentage of infected macrophages. Figure 5 presents the graphs of the infection rates, while the other graphs can be found in Figure S7.4.

[2] = Cytotoxicity assay on Vero cells (resazurin); type: cell-based, African green monkey; conditions: African green monkey, Vero cells (ATCC CRL-1587), 24 h treatment
Experimental: as §4

[3] = Solubility in buffer for the fluorescence experiments; type: physicochemical; conditions: Tris-HCl buffer
Experimental: The compounds were solubilized in DMSO and then we made successive dilutions in a Tris-HCl 25 mmol L^−1 buffer, pH 8.0, containing 100 mmol L^−1 of NaCl. For all experiments, the final concentration of DMSO was kept constant and equal to 2.5%. Solutions with increasing concentrations of ligand and constant concentration of LbOYE (1 µmol L^−1) were prepared, which were kept at 25 °C for a period of 1h before acquisition of fluorescence emission spectra.
After the synthesis and structural characterization of the compounds, studies of interaction of the compounds and the recombinant LbOYE were carried out by fluorescence measurements.

SMILES	IC50 (Leishmania braziliensis) [µM]	SI L. braziliensis (Leishmania braziliensis)	IC50 (Leishmania infantum) [µM]	SI L. infantum (Leishmania infantum)	CC50 (Vero cells) [µM]	Infection rate of L. infantum in macrophages, in words [1]	IC50 (Leishmania braziliensis; Leishmania braziliensis) [µM]	IC50 (Leishmania infantum; Leishmania infantum) [µM]	CC50 at 24 h [2] [µM]	Solubility in buffer at the concentrations for the fluorescence experiments, in words [3]
Cc1ccc(S(=O)(=O)NNC(Nc2ccc([N+](=O)[O-])cc2)=[S][Au+][S]=C(NNS(=O)(=O)c2ccc(C)cc2)Nc2ccc([N+](=O)[O-])cc2)cc1.[Cl-] [Au5, [Au(HL5^NO2Ph)2]Cl]	284 ± 0.259	0.21	295.5 ± 0.259	0.198	58.6	–	–	–	–	–
Cc1ccc(S(=O)(=O)NNC(Nc2ccc(Cl)cc2)=[S][Ag+][S]=C(NNS(=O)(=O)c2ccc(C)cc2)Nc2ccc(Cl)cc2)cc1.O=[N+]([O-])[O-] [Ag4, [Ag(HL4^ClPh)2]NO3]	84.62 ± 0.116	>5.91	72.17 ± 0.036	–	> 500	did not show a promising infection rate	–	–	–	–
Cc1ccc(S(=O)(=O)NNC(Nc2ccccc2)=[S][Au+][S]=C(NNS(=O)(=O)c2ccc(C)cc2)Nc2ccccc2)cc1.[Cl-] [Au2, [Au(HL2^Ph)2]Cl]	143.2 ± 0.085	2.06	41.69 ± 0.21	7.09	296	able to inhibit the parasite infection inside the cells even at lower concentrations than that determined by their IC50 values; also recorded: able to inhibit the parasite infection even at lower concentrations than that of their IC50 values	–	–	–	–
Cc1ccc(S(=O)(=O)NNC(=S)Nc2ccc(Cl)cc2)cc1 [HL4^ClPh, N-(4-chlorophenyl)-2-tosylhydrazinocarbothioamide]	–	0.13	–	0.16	–	–	133.8 ± 0.036	108.4 ± 0.104	16.8	–
C=CCNC(=S)NNS(=O)(=O)c1ccc(C)cc1 [HL6^Al, N-allyl-2-tosylhydrazinocarbothioamide]	–	0.60	–	0.23	–	–	313.5 ± 0.063	812.8 ± 0.515	188	not soluble in the buffer used for the experiment
Cc1ccc(S(=O)(=O)NNC(NC2CCCCC2)=[S][Ag+][S]=C(NNS(=O)(=O)c2ccc(C)cc2)NC2CCCCC2)cc1.O=[N+]([O-])[O-] [Ag1, [Ag(HL1^Ch)2]NO3]	50.15 ± 0.02	0.15	57.42 ± 0.028	0.129	7.4	–	–	–	–	–
Cc1ccc(S(=O)(=O)NNC(Nc2ccc(F)cc2)=[S][Au+][S]=C(NNS(=O)(=O)c2ccc(C)cc2)Nc2ccc(F)cc2)cc1.[Cl-] [Au3, [Au(HL3^FPh)2]Cl]	194.9 ± 0.063	0.15	173.9 ± 0.087	0.17	28.8	–	–	–	–	–
Cc1ccc(S(=O)(=O)NNC(Nc2ccc([N+](=O)[O-])cc2)=[S][Ag+][S]=C(NNS(=O)(=O)c2ccc(C)cc2)Nc2ccc([N+](=O)[O-])cc2)cc1.O=[N+]([O-])[O-] [Ag5, [Ag(HL5^NO2Ph)2]NO3]	90.73 ± 0.236	5.44	78.79 ± 0.091	–	493	–	–	–	–	–
Cc1ccc(S(=O)(=O)NNC(Nc2ccccc2)=[S][Ag+][S]=C(NNS(=O)(=O)c2ccc(C)cc2)Nc2ccccc2)cc1.O=[N+]([O-])[O-] [Ag2, [Ag(HL2^Ph)2]NO3]	183.7 ± 0.027	0.50	280.5 ± 0.167	0.33	92.1	–	–	–	–	–
C=CCNC(NNS(=O)(=O)c1ccc(C)cc1)=[S][Au+][S]=C(NCC=C)NNS(=O)(=O)c1ccc(C)cc1.[Cl-] [Au6, [Au(HL6^Al)2]Cl]	5554 ± 1.37	0.01	62.54 ± 0.151	1.24	77.5	–	–	–	–	not soluble in the buffer used for the experiment
C=CCNC(NNS(=O)(=O)c1ccc(C)cc1)=[S][Ag+][S]=C(NCC=C)NNS(=O)(=O)c1ccc(C)cc1.O=[N+]([O-])[O-] [Ag6, [Ag(HL6^Al)2]NO3]	305.2 ± 0.032	>1.64	78.59 ± 0.605	>6.36	> 500	able to inhibit the parasite infection inside the cells even at lower concentrations than that determined by their IC50 values; also recorded: able to inhibit the parasite infection even at lower concentrations than that of their IC50 values	–	–	–	not soluble in the buffer used for the experiment
